Experimental data published in ChEMBL document CHEMBL1201861, “Genomics of Drug Sensitity in Cancer screening data, Wellcome Trust Sanger Institute”.

How the values were obtained:
[1] = system: NCI-H460; experiment: cells; type: functional, cell-based; settings: Homo sapiens;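 note: cell viability assay scoring growth inhibition of human NCI-H460 cells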
Description: SANGER: Inhibition of human NCI-H460 cell growth in a cell viability assay.

[2] = system: HT-1376; experiment: cells; type: functional, cell-based; settings: Homo sapiens
Description: SANGER: Inhibition of human HT-1376 cell growth in a cell viability assay.

[3] = system: FTC-133; experiment: cells; type: functional, cell-based; settings: Homo sapiens
[4] = system: SK-MEL3; experiment: cells; type: functional, cell-based, SK-MEL-3; settings: Homo sapiens;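 note: growth inhibition of human SK-MEL-3 cells, read out with a cell viability assay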
Description: SANGER: Inhibition of human SK-MEL-3 cell growth in a cell viability assay.

[5] = system: ARH-77; experiment: cells; type: functional, cell-based; settings: Homo sapiens;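 note: growth inhibition of ARH-77 cells, read out by a cell viability assay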
Description: SANGER: Inhibition of human ARH-77 cell growth in a cell viability assay.

[6] = system: HCC70; experiment: cells; type: functional, cell-based; settings: Homo sapiens;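 note: cell viability assay measuring how strongly the compound suppresses proliferation of HCC70 cells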
Description: SANGER: Inhibition of human HCC70 cell growth in a cell viability assay.

[7] = system: BHT-101; experiment: cells; type: functional, cell-based; settings: Homo sapiens
Description: SANGER: Inhibition of human BHT-101 cell growth in a cell viability assay.

[8] = system: GDM-1; experiment: cells; type: functional, cell-based; settings: Homo sapiens;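 note: cell viability readout used to measure growth inhibition of human GDM-1 cells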
Description: SANGER: Inhibition of human GDM-1 cell growth in a cell viability assay.

[9] = system: CAPAN-1; experiment: cells; type: functional, cell-based; settings: Homo sapiens;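 note: growth suppression of CAPAN-1 cells, read out by a cell viability assay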
Description: SANGER: Inhibition of human CAPAN-1 cell growth in a cell viability assay.

[10] = system: 23132-87; experiment: cells; type: functional, cell-based; settings: Homo sapiens
Description: SANGER: Inhibition of human 23132-87 cell growth in a cell viability assay.

[11] = system: A 172; experiment: cells; type: functional, cell-based; settings: Homo sapiens;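 note: growth inhibition of A172 cells, measured with a cell viability readout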
Description: SANGER: Inhibition of human A172 cell growth in a cell viability assay.

[12] = system: CAL-85-1; experiment: cells; type: functional, cell-based; settings: Homo sapiens;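 note: growth inhibition of human CAL-85-1 cells, read out with a cell viability assay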
Description: SANGER: Inhibition of human CAL-85-1 cell growth in a cell viability assay.

[13] = system: IGROV-1; experiment: cells; type: functional, cell-based; settings: Homo sapiens;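 note: reduction of IGROV-1 cell growth, read out with a viability assay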
Description: SANGER: Inhibition of human IGROV-1 cell growth in a cell viability assay.

[14] = system: SNU-449; experiment: cells; type: functional, cell-based; settings: Homo sapiens
Description: SANGER: Inhibition of human SNU-449 cell growth in a cell viability assay.

[15] = system: CAL-54; experiment: cells; type: functional, cell-based; settings: Homo sapiens;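 note: growth inhibition of CAL-54 cells, read out by a viability measurement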
Description: SANGER: Inhibition of human CAL-54 cell growth in a cell viability assay.

[16] = system: DU-145; experiment: cells; type: functional, cell-based; settings: Homo sapiens
Description: SANGER: Inhibition of human DU-145 cell growth in a cell viability assay.

[17] = system: C3A; experiment: cells; type: functional, cell-based; settings: Homo sapiens;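 note: growth inhibition of C3A human cells, quantified with a cell viability readout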
Description: SANGER: Inhibition of human C3A cell growth in a cell viability assay.

[18] = system: CAMA-1; experiment: cells; type: functional, cell-based; settings: Homo sapiens;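 note: growth inhibition of CAMA-1 cells, read out with a cell viability assay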
Description: SANGER: Inhibition of human CAMA-1 cell growth in a cell viability assay.

[19] = system: KARPAS-422; experiment: cells; type: functional, cell-based; settings: Homo sapiens
Description: SANGER: Inhibition of human KARPAS-422 cell growth in a cell viability assay.

[20] = system: G-402; experiment: cells; type: functional, cell-based; settings: Homo sapiens
Description: SANGER: Inhibition of human G-402 cell growth in a cell viability assay.

[21] = system: NCI-H2087; experiment: cells; type: functional, cell-based; settings: Homo sapiens;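 note: growth inhibition determined with a cell viability readout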
Description: SANGER: Inhibition of human NCI-H2087 cell growth in a cell viability assay.

[22] = system: HuP-T3; experiment: cells; type: functional, cell-based; settings: Homo sapiens;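 note: HuP-T3 cell growth inhibition, read out with a cell viability assay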
Description: SANGER: Inhibition of human HuP-T3 cell growth in a cell viability assay.

[23] = system: HN; experiment: cells; type: functional, cell-based; settings: Homo sapiens
Description: SANGER: Inhibition of human HN cell growth in a cell viability assay.

[24] = system: VMRC-RCZ; experiment: cells; type: functional, cell-based; settings: Homo sapiens
Description: SANGER: Inhibition of human VMRC-RCZ cell growth in a cell viability assay.

[25] = system: SUP-T1; experiment: cells; type: functional, cell-based; settings: Homo sapiens;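 note: growth inhibition of human SUP-T1 cells, read out as cell viability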
Description: SANGER: Inhibition of human SUP-T1 cell growth in a cell viability assay.

[26] = system: D-336MG; experiment: cells; type: functional, cell-based; settings: Homo sapiens
Description: SANGER: Inhibition of human D-336MG cell growth in a cell viability assay.

[27] = system: T-24; experiment: cells; type: functional, cell-based; settings: Homo sapiens;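 note: growth inhibition of T-24 cells, read out with a cell viability assay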
Description: SANGER: Inhibition of human T-24 cell growth in a cell viability assay.

[28] = system: SAS; experiment: cells; type: functional, cell-based; settings: Homo sapiens;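 note: growth inhibition of SAS cells, read out with a cell viability assay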
Description: SANGER: Inhibition of human SAS cell growth in a cell viability assay.

[29] = system: GMS-10; experiment: cells; type: functional, cell-based; settings: Homo sapiens;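 note: growth inhibition of GMS-10 cells, read out as cell viability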
Description: SANGER: Inhibition of human GMS-10 cell growth in a cell viability assay.

[30] = system: MHH-ES-1; experiment: cells; type: functional, cell-based; settings: Homo sapiens
Description: SANGER: Inhibition of human MHH-ES-1 cell growth in a cell viability assay.

[31] = system: 639-V; experiment: cells; type: functional, cell-based; settings: Homo sapiens;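 note: growth inhibition of 639-V cells, read out with a cell viability assay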
Description: SANGER: Inhibition of human 639-V cell growth in a cell viability assay.

[32] = system: HCT-116; experiment: cells; type: functional, cell-based; settings: Homo sapiens
Description: SANGER: Inhibition of human HCT-116 cell growth in a cell viability assay.

[33] = system: OPM-2; experiment: cells; type: functional, cell-based; settings: Homo sapiens;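 note: growth of OPM-2 cells measured with a viability assay, IC50 for suppression of proliferation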
Description: SANGER: Inhibition of human OPM-2 cell growth in a cell viability assay.

[34] = system: TYK-nu; experiment: cells; type: functional, cell-based; settings: Homo sapiens;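 note: growth inhibition of human TYK-nu cells, read out by a cell viability assay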
Description: SANGER: Inhibition of human TYK-nu cell growth in a cell viability assay.

[35] = system: NCI-H441; experiment: cells; type: functional, cell-based; settings: Homo sapiens;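 note: growth inhibition of NCI-H441 cells, read out with a cell viability assay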
Description: SANGER: Inhibition of human NCI-H441 cell growth in a cell viability assay.

[36] = system: MDA-MB-415; experiment: cells; type: functional, cell-based; settings: Homo sapiens
[37] = system: HSC-3; experiment: cells; type: functional, cell-based; settings: Homo sapiens
Description: SANGER: Inhibition of human HSC-3 cell growth in a cell viability assay.

[38] = system: U2OS; experiment: cells; type: functional, cell-based, U-2-OS; settings: Homo sapiens;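 note: growth inhibition of human U-2-OS cells, determined with a cell viability assay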
Description: SANGER: Inhibition of human U-2-OS cell growth in a cell viability assay.

[39] = system: HEC-1; experiment: cells; type: functional, cell-based; settings: Homo sapiens;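 note: growth inhibition of the cell line, read out with a cell viability assay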
Description: SANGER: Inhibition of human HEC-1 cell growth in a cell viability assay.

[40] = system: BL-70; experiment: SANGER: Inhibition of human BL-70 cell growth in a cell viability assay.; type: functional, cell-based
[41] = system: MEL-HO; experiment: cells; type: functional, cell-based; settings: Homo sapiens
Description: SANGER: Inhibition of human MEL-HO cell growth in a cell viability assay.

[42] = system: HuCCT-1; experiment: cells; type: functional, cell-based, HuCCT1; settings: Homo sapiens;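 note: growth inhibition of HuCCT-1 cells, read out by a cell viability assay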
Description: SANGER: Inhibition of human HuCCT1 cell growth in a cell viability assay.

[43] = system: HT-29; experiment: cells; type: functional, cell-based; settings: Homo sapiens;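 note: growth inhibition of human HT-29 cells, read out by a cell viability assay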
Description: SANGER: Inhibition of human HT-29 cell growth in a cell viability assay.

[44] = system: SW780; experiment: cells; type: functional, cell-based; settings: Homo sapiens;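 note: growth inhibition of the cells, read out with a cell viability assay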
Description: SANGER: Inhibition of human SW780 cell growth in a cell viability assay.

[45] = system: SR; experiment: cells; type: functional, cell-based; settings: Homo sapiens
Description: SANGER: Inhibition of human SR cell growth in a cell viability assay.

[46] = system: NALM-6; experiment: cells; type: functional, cell-based; settings: Homo sapiens;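 note: growth inhibition of NALM-6 cells, read out with a cell viability assay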
Description: SANGER: Inhibition of human NALM-6 cell growth in a cell viability assay.

[47] = system: Daoy; experiment: cells; type: functional, cell-based; settings: Homo sapiens;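 note: daoy cell growth inhibition, read out as cell viability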
Description: SANGER: Inhibition of human Daoy cell growth in a cell viability assay.

[48] = system: COLO-678; experiment: cells; type: functional, cell-based; settings: Homo sapiens
Description: SANGER: Inhibition of human COLO-678 cell growth in a cell viability assay.

[49] = system: UO-31; experiment: cells; type: functional, cell-based; settings: Homo sapiens
Description: SANGER: Inhibition of human U031 cell growth in a cell viability assay.

[50] = system: NCCIT; experiment: SANGER: Inhibition of human NCCIT cell growth in a cell viability assay.; type: functional, cell-based
[51] = system: SCC-9; experiment: cells; type: functional, cell-based; settings: Homo sapiens;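 note: Read-out is a cell viability assay, with values giving inhibition of cell growth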
Description: SANGER: Inhibition of human SCC-9 cell growth in a cell viability assay.

[52] = system: DK-MG; experiment: cells; type: functional, cell-based; settings: Homo sapiens;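 note: growth inhibition of DK-MG cells, read out with a cell viability assay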
Description: SANGER: Inhibition of human DK-MG cell growth in a cell viability assay.

[53] = system: HTC-C3; experiment: cells; type: functional, cell-based; settings: Homo sapiens;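 note: inhibition of cell growth, read out with a cell viability assay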
Description: SANGER: Inhibition of human HTC-C3 cell growth in a cell viability assay.

[54] = system: CHP-212; experiment: cells; type: functional, cell-based; settings: Homo sapiens
Description: SANGER: Inhibition of human CHP-212 cell growth in a cell viability assay.

[55] = system: BFTC-905; experiment: cells; type: functional, cell-based; settings: Homo sapiens
Description: SANGER: Inhibition of human BFTC-905 cell growth in a cell viability assay.

[56] = system: RPMI-7951; experiment: cells; type: functional, cell-based; settings: Homo sapiens
Description: SANGER: Inhibition of human RPMI-7951 cell growth in a cell viability assay.

[57] = system: GP5d; experiment: cells; type: functional, cell-based; settings: Homo sapiens;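 note: growth inhibition of human GP5d cells, read out with a cell viability assay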
Description: SANGER: Inhibition of human GP5d cell growth in a cell viability assay.

[58] = system: Detroit 562; experiment: cells; type: functional, cell-based; settings: Homo sapiens;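 note: growth inhibition of human Detroit 562 cells, read out by a cell viability assay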
Description: SANGER: Inhibition of human Detroit562 cell growth in a cell viability assay.

[59] = system: Panc1005; experiment: cells; type: functional, cell-based; settings: Homo sapiens;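 note: growth inhibition of human PANC-10-05 cells, measured by a cell viability assay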
Description: SANGER: Inhibition of human PANC-10-05 cell growth in a cell viability assay.

[60] = system: WSU-NHL; experiment: cells; type: functional, cell-based; settings: Homo sapiens;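 note: growth inhibition of human WSU-NHL cells, read out with a cell viability assay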
Description: SANGER: Inhibition of human WSU-NHL cell growth in a cell viability assay.

[61] = system: CAL-33; experiment: cells; type: functional, cell-based; settings: Homo sapiens;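 note: growth inhibition of CAL-33 cells, read out with a cell viability assay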
Description: SANGER: Inhibition of human CAL-33 cell growth in a cell viability assay.

[62] = system: MeWo; experiment: cells; type: functional, cell-based; settings: Homo sapiens;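 note: growth inhibition of MeWo cells, determined by a cell viability readout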
Description: SANGER: Inhibition of human Mewo cell growth in a cell viability assay.

`CC(C)=CC[C@@H](O)C1=CC(=O)c2c(O)ccc(O)c2C1=O` [SHIKONIN] was tested, and the IC50 [1] was 1280 nM, the IC50 [2] was 915 nM and the IC50 [3] was 5740 nM. The IC50 [4] was 2640 nM, the IC50 [5] was 873 nM and the IC50 [6] was 2010 nM. It also gave an IC50 [7] of 1250 nM, an IC50 [8] of 2680 nM and an IC50 [9] of 759 nM. It also gave an IC50 [10] of 2110 nM, an IC50 [11] of 470 nM and an IC50 [12] of 161 nM. For the same compound, the IC50 [13] was 55.6 nM, the IC50 [14] was 813 nM and the IC50 [15] was 1420 nM. The IC50 [16] was 193 nM, the IC50 [17] was 657 nM and the IC50 [18] was 1520 nM. The IC50 [19] was > 16000 nM, the IC50 [20] was 882 nM and the IC50 [21] was 441 nM. The IC50 [22] was 834 nM, the IC50 [23] was 1370 nM and the IC50 [24] was 547 nM. The IC50 [25] was 1820 nM, the IC50 [26] was 1750 nM and the IC50 [27] was 2460 nM. The IC50 [28] was 854 nM, the IC50 [29] was 11500 nM and the IC50 [30] was 689 nM. For the same compound, the IC50 [31] was 265 nM, the IC50 [32] was 386 nM and the IC50 [33] was 343 nM. For the same compound, the IC50 [34] was 1150 nM, the IC50 [35] was 15800 nM and the IC50 [36] was 2280 nM. The IC50 [37] was 337 nM, the IC50 [38] was > 16000 nM and the IC50 [39] was 1130 nM. For the same compound, the IC50 [40] was 278 nM, the IC50 [41] was 149 nM and the IC50 [42] was 483 nM. It also gave an IC50 [43] of 645 nM, an IC50 [44] of 406 nM and an IC50 [45] of 141 nM. For the same compound, the IC50 [46] was < 62.5 nM, the IC50 [47] was 159 nM and the IC50 [48] was 1630 nM. For the same compound, the IC50 [49] was 771 nM, the IC50 [50] was 517 nM and the IC50 [51] was 197 nM. The IC50 [52] was 9820 nM, the IC50 [53] was 542 nM and the IC50 [54] was 1100 nM. For the same compound, the IC50 [55] was 284 nM, the IC50 [56] was 156 nM and the IC50 [57] was 1340 nM. The IC50 [58] was > 16000 nM, the IC50 [59] was 416 nM and the IC50 [60] was 260 nM. For the same compound, the IC50 [61] was 2000 nM and the IC50 [62] was 517 nM.

For `CCNc1cc(N[C@H]2CC[C@@H](O)CC2)nc(Nc2ccc3c(ccn3Cc3ccccc3)c2)n1`, the IC50 [5] was > 5120 nM, the IC50 [8] was > 5120 nM and the IC50 [19] was > 5120 nM. For the same compound, the IC50 [25] was > 5120 nM, the IC50 [26] was > 5120 nM and the IC50 [33] was > 5120 nM. The IC50 [40] was > 5120 nM, the IC50 [45] was > 5120 nM and the IC50 [46] was 4980 nM. The IC50 [50] was > 5120 nM and the IC50 [60] was > 5120 nM.

`O=c1[nH]c2ccccc2n1C1CCN(Cc2ccc(-c3nc4cc5[nH]cnc5cc4nc3-c3ccccc3)cc2)CC1` was tested, and the IC50 [1] was > 2560 nM, the IC50 [2] was > 2560 nM and the IC50 [3] was > 2560 nM. The IC50 [4] was > 2560 nM, the IC50 [5] was > 2560 nM and the IC50 [6] was 751 nM. For the same compound, the IC50 [7] was > 2560 nM, the IC50 [8] was > 2560 nM and the IC50 [9] was > 2560 nM. For the same compound, the IC50 [10] was 759 nM, the IC50 [11] was > 2560 nM and the IC50 [12] was > 2560 nM. The IC50 [13] was 723 nM, the IC50 [14] was > 2560 nM and the IC50 [15] was > 2560 nM. For the same compound, the IC50 [16] was > 2560 nM, the IC50 [17] was > 2560 nM and the IC50 [18] was > 2560 nM. The IC50 [19] was > 2560 nM, the IC50 [20] was 1780 nM and the IC50 [21] was > 2560 nM. For the same compound, the IC50 [22] was > 2560 nM, the IC50 [23] was > 2560 nM and the IC50 [24] was > 2560 nM. For the same compound, the IC50 [25] was > 2560 nM, the IC50 [26] was > 2560 nM and the IC50 [27] was > 2560 nM. The IC50 [28] was > 2560 nM, the IC50 [29] was > 2560 nM and the IC50 [30] was > 2560 nM. The IC50 [31] was > 2560 nM, the IC50 [32] was > 2560 nM and the IC50 [33] was > 2560 nM. For the same compound, the IC50 [34] was > 2560 nM, the IC50 [35] was > 2560 nM and the IC50 [36] was 1730 nM. The IC50 [37] was > 2560 nM, the IC50 [38] was > 2560 nM and the IC50 [39] was > 2560 nM. For the same compound, the IC50 [40] was > 2560 nM, the IC50 [41] was > 2560 nM and the IC50 [42] was > 2560 nM. The IC50 [43] was 2430 nM, the IC50 [44] was > 2560 nM and the IC50 [45] was > 2560 nM. For the same compound, the IC50 [46] was 2150 nM, the IC50 [47] was > 2560 nM and the IC50 [48] was > 2560 nM. The IC50 [49] was > 2560 nM, the IC50 [50] was > 2560 nM and the IC50 [51] was > 2560 nM. The IC50 [52] was > 2560 nM, the IC50 [53] was > 2560 nM and the IC50 [54] was > 2560 nM. The IC50 [55] was > 2560 nM, the IC50 [56] was > 2560 nM and the IC50 [57] was > 2560 nM. For the same compound, the IC50 [58] was > 2560 nM, the IC50 [59] was > 2560 nM and the IC50 [60] was > 2560 nM. The IC50 [61] was > 2560 nM and the IC50 [62] was > 2560 nM.
